# Results taken from patent publication US8193351B2, “HSP90 inhibitor” (Chugai Seiyaku Kabushiki Kaisha, priority 2006, dated 2012).
# What was measured:
# [1] = target: T1, Human HSP90 alpha (Homo sapiens, UniProt P07900); experiment: Measurement of HSP90 enzyme inhibitory activity (ATPase, malachite green); type: biochemical; details: purified human HSP90 alpha, 1 mM ATP added, 37° C., two hours; read-out: Enzyme inhibitory activity (IC50, μM) Human HSP 90α
# T1 construct: made in house; host or cells: E. coli BL21 codon plus (Stratagene)
# Experimental: HSP90 enzyme inhibitory activity of the compounds of the present invention represented by formula (1) was measured by the following method. Among the 6-phenyl-N-phenyl-(1,3,5)triazin/(1,3)pyrimidin-2,4-diamine derivatives which are known LPAAT-β inhibitors, the following two compounds were used as comparative compounds, and their HSP90 enzyme inhibitory activities were measured similarly by the following method.
# Introduction of pETHuHSP90a into E. coli (BL21 codon plus; Stratagene) was followed by O/N incubation in the presence of 0.1 mM IPTG, and the collected E. coli cells were disrupted by ultrasonication in a Lysis buffer (50 mM Tris-HCl (pH8.0), 10 mM MgCl2, 0.1% Triton X-100, Protease inhibitor cocktail tablets (Roche Diagnostics)). The cell lysate solution was centrifuged (10,000 rpm×30 minutes), and the supernatant obtained after centrifugation was used as a crude extract. The crude extract was fractionated using HisPrep FF column and HiTrap Q column (Amersham) to prepare a purified enzyme solution.
# An enzyme solution for assays was prepared by dilution of the purified enzyme solution using an assay buffer (50 mM Tris HCl pH7.6, 20 mM KCl, 5 mM MgCl2).
# 10 μL each of various concentrations of the test substances (10% DMSO solution) was added to each well, and for the positive control wells, 10 μL of 10% DMSO was added. 10 μL of 10% DMSO was also added to the negative control well.
# 10 μL of 1 mM ATP was added to all of the wells, and the reaction was carried out at 37° C. for two hours.
# [2] = test system: HCT116 cells; experiment: Measurement of cell growth inhibition (Cell Counting Kit-8, four days); type: cell-based; details: Homo sapiens, HCT-116, 96 h; HCT116 colon cancer cell line, four days culture; read-out: Cell growth inhibitory activity (IC50, μM) HCT116
# Experimental: Cell growth inhibitory activities of the compounds of the present invention represented by formula (1) were measured by the following method.
# Cells were maintained under conditions recommended by the provider of each cell line. Cells suspended in a medium were added to solutions containing various concentrations of the test substance, and the cells were cultured at 37° C. in a 5% CO2 incubator. Four days later, Cell Counting Kit-8 was added, and absorbance measurements were taken following the protocol included in the kit.
Structure (SMILES),IC50 [1] [µM],IC50 [2] [µM]
"NC(=O)CCCSc1cc(-c2c(Cl)cc3c4c(cccc24)COC3)nc(N)n1 [Example 324, 4-[2-amino-6-(5-chloro-1H,3H-benzo[de]isochromen-6-yl)-pyrimidin-4-ylsulfanyl]-butylamide]",1.8,0.16
"NC(=O)OCCSc1cc(-c2c(Cl)cc3c4c(cccc24)COC3)nc(N)n1 [Example 325, carbamic acid 2-[2-amino-6-(5-chloro-1H,3H-benzo[de]isochromen-6-yl)-pyrimidin-4-ylsulfanyl]-ethyl ester]",2.1,0.26
"CS(=O)(=O)NCCSc1cc(-c2c(Cl)cc3c4c(cccc24)COC3)nc(N)n1 [Example 329, N-{2-[2-amino-6-(5-chloro-1H,3H-benzo[de]isochromen-6-yl)-pyrimidin-4-ylsulfanyl]-ethyl}-methanesulfonamide]",1,0.31
"Nc1nc(SCC2CNC(=O)O2)cc(-c2c(Cl)cc3c4c(cccc24)COC3)n1 (stereo not drawn) [Example 330, 5-[2-amino-6-(5-chloro-1H,3H-benzo[de]isochromen-6-yl)-pyrimidin-4-ylsulfanylmethyl]-oxazolidin-2-one]",1.2,2.1
"N#CCNC(=O)CSc1nc(N)nc(-c2c(Cl)cc3c4c(cccc24)COC3)n1 [Example 333, 2-[4-amino-6-(5-chloro-1H,3H-benzo[de]isochromen-6-yl)-[1,3,5]triazin-2-ylsulfanyl]-N-cyano methyl-acetamide]",1.9,0.38
"COCCNC(=O)CCSc1nc(N)nc(-c2c(Cl)cc3c4c(cccc24)COC3)n1 [Example 334, 3-[4-amino-6-(5-chloro-1H,3H-benzo[de]isochromen-6-yl)-[1,3,5]triazin-2-ylsulfanyl]-N-(2-methoxy-ethyl)-propionamide]",1.3,0.16
"Nc1nc(SCCC(=O)NC[C@@H](O)CO)nc(-c2c(Cl)cc3c4c(cccc24)COC3)n1 [Example 335, 3-[4-amino-6-(5-chloro-1H,3H-benzo[de]isochromen-6-yl)-[1,3,5]triazin-2-ylsulfanyl]-N—((R)-2,3-dihydroxy-propyl)-propionamide]",1.2,0.49
"CNC(=O)C(C)CSc1nc(N)nc(-c2c(Cl)cc3c4c(cccc24)COC3)n1 (stereo not drawn) [Example 337, 3-[4-amino-6-(5-chloro-1H,3H-benzo[de]isochromen-6-yl)-[1,3,5]triazin-2-ylsulfanyl]-2,N-dimethyl-propionamide]",1.5,0.018
"Nc1nc(SCCCO)nc(-c2c(Cl)cc3c4c(cccc24)COC3)n1 [Example 340, 3-[4-amino-6-(5-chloro-1H,3H-benzo[de]isochromen-6-yl)-[1,3,5]triazin-2-ylsulfanyl]-propan-1-ol]",3.3,0.12
"Nc1nc(SCCNC(=O)CO)nc(-c2c(Cl)cc3c4c(cccc24)COC3)n1 [Example 342, N-{2-[4-amino-6-(5-chloro-1H,3H-benzo[de]isochromen-6-yl)-[1,3,5]triazin-2-ylsulfanyl]-ethyl}-2-hydroxy-acetamide]",1.3,0.49
"NC(=O)CCCSc1nc(N)nc(-c2c(Cl)cc3c4c(cccc24)CSC3)n1 [Example 343, 4-[4-amino-6-(5-chloro-1H,3H-2-thia-phenalen-6-yl)-[1,3,5]triazin-2-ylsulfanyl]-butyramide]",1.8,0.015

# Other lines, results leading:
IC50 [1] [µM],IC50 [2] [µM],Structure (SMILES)
1.4,0.63,"Nc1nc(SCCC(=O)NC[C@@H](O)CO)cc(-c2c(Cl)cc3c4c(cccc24)COC3)n1 [Example 320, 3-[2-amino-6-(5-chloro-1H,3H-benzo[de]isochromen-6-yl)-pyrimidin-4-ylsulfanyl]-N—((R)-2,3-dihydroxy-propyl)-propionamide]"
1.3,0.13,"CC(CSc1cc(-c2c(Cl)cc3c4c(cccc24)COC3)nc(N)n1)C(N)=O (stereo not drawn) [Example 321, 3-[2-amino-6-(5-chloro-1H,3H-benzo[de]isochromen-6-yl)-pyrimidin-4-ylsulfanyl]-2-methyl-propionamide]"
1.7,0.08,"CNC(=O)C(C)CSc1cc(-c2c(Cl)cc3c4c(cccc24)COC3)nc(N)n1 (stereo not drawn) [Example 322, 3-[2-amino-6-(5-chloro-1H,3H-benzo[de]isochromen-6-yl)-pyrimidin-4-ylsulfanyl]-2,N-dimethyl-propionamide]"
2.8,0.21,"CC(CSc1cc(-c2c(Cl)cc3c4c(cccc24)COC3)nc(N)n1)C(=O)NCCO (stereo not drawn) [Example 323, 3-[2-amino-6-(5-chloro-1H,3H-benzo[de]isochromen-6-yl)-pyrimidin-4-ylsulfanyl]-N-(2-hydroxy-ethyl)-2-methyl-propionamide]"
2.1,0.52,"Nc1nc(SCCCO)cc(-c2c(Cl)cc3c4c(cccc24)COC3)n1 [Example 326, 3-[2-amino-6-(5-chloro-1H,3H-benzo[de]isochromen-6-yl)-pyrimidin-4-ylsulfanyl]-propan-1-ol]"
2.1,0.93,"CC(=O)NCCSc1cc(-c2c(Cl)cc3c4c(cccc24)COC3)nc(N)n1 [Example 327, N-{2-[2-amino-6-(5-chloro-1H,3H-benzo[de]isochromen-6-yl)-pyrimidin-4-ylsulfanyl]-ethyl}-acetamide]"
2.1,0.2,"CC(=O)NCCCSc1cc(-c2c(Cl)cc3c4c(cccc24)COC3)nc(N)n1 [Example 328, N-{3-[2-amino-6-(5-chloro-1H,3H-benzo[de]isochromen-6-yl)-pyrimidin-4-ylsulfanyl]-propyl}-acetamide]"
1.5,1.9,"Nc1nc(SCCNC(=O)CO)cc(-c2c(Cl)cc3c4c(cccc24)COC3)n1 [Example 331, N-{2-[2-amino-6-(5-chloro-1H,3H-benzo[de]isochromen-6-yl)-pyrimidin-4-ylsulfanyl]-ethyl}-2-hydroxy-acetamide]"
2.2,0.47,"NC(=O)NCCSc1cc(-c2c(Cl)cc3c4c(cccc24)COC3)nc(N)n1 [Example 332, {2-[2-amino-6-(5-chloro-1H,3H-benzo[de]isochromen-6-yl)-pyrimidin-4-ylsulfanyl]-ethyl}-urea]"
1.5,0.12,"CC(CSc1nc(N)nc(-c2c(Cl)cc3c4c(cccc24)COC3)n1)C(=O)NCCO (stereo not drawn) [Example 338, 3-[4-amino-6-(5-chloro-1H,3H-benzo[de]isochromen-6-yl)-[1,3,5]triazin-2-ylsulfanyl]-N-(2-hydroxy-ethyl)-2-methyl-propionamide]"
